Reference: PubChem BioAssay (NCI)
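Following 48 hours of exposure in 96-well plates, responses at five concentrations were used to interpolate endpoints linearly. GI50 = concentration required for 50% inhibition of growth. Definition used: TGI = concentration required for complete inhibition of growth.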

Legend:
Assay in all cases: NCI-60 cell line screen, 48 h
EKVX NSCLC = system: EKVX NSCLC
UACC-257 melanoma = system: UACC-257 melanoma
MOLT-4 leukemia = system: MOLT-4 leukemia
LXFL 529 NSCLC = system: LXFL 529 NSCLC
SK-MEL-28 melanoma = system: SK-MEL-28 melanoma
HT29 colon = system: HT29 colon
ACHN renal = system: ACHN renal
HL-60(TB) leukemia = system: HL-60(TB) leukemia
IGROV1 ovarian = system: IGROV1 ovarian
A549 NSCLC = system: A549 NSCLC
OVCAR-4 ovarian = system: OVCAR-4 ovarian
SK-MEL-2 melanoma = system: SK-MEL-2 melanoma
M14 melanoma = system: M14 melanoma
DLD-1 colon = system: DLD-1 colon
SK-MEL-5 melanoma = system: SK-MEL-5 melanoma
SR leukemia = system: SR leukemia
COLO 205 colon = system: COLO 205 colon
NCI-H522 lung = system: NCI-H522 lung
SF-268 CNS = system: SF-268 CNS
DMS 114 small cell lung = system: DMS 114 small cell lung
TK-10 renal = system: TK-10 renal
786-0 renal = system: 786-0 renal
SF-539 CNS = system: SF-539 CNS
U251 CNS = system: U251 CNS
LOX IMVI melanoma = system: LOX IMVI melanoma
OVCAR-8 ovarian = system: OVCAR-8 ovarian
KM20L2 colon = system: KM20L2 colon
UACC-62 melanoma = system: UACC-62 melanoma
HCC-2998 colon = system: HCC-2998 colon
HOP-92 NSCLC = system: HOP-92 NSCLC
NCI-H23 lung = system: NCI-H23 lung
OVCAR-5 ovarian = system: OVCAR-5 ovarian
RXF 393 renal = system: RXF 393 renal
KM12 colon = system: KM12 colon
HOP-62 NSCLC = system: HOP-62 NSCLC
SNB-78 CNS = system: SNB-78 CNS
RPMI-8226 leukemia = system: RPMI-8226 leukemia
NCI-H460 lung = system: NCI-H460 lung
UO-31 renal = system: UO-31 renal
NCI-H226 lung = system: NCI-H226 lung
OVCAR-3 ovarian = system: OVCAR-3 ovarian
CCRF-CEM leukemia = system: CCRF-CEM leukemia
SN12C renal = system: SN12C renal
M19-MEL melanoma = system: M19-MEL melanoma
CAKI-1 renal = system: CAKI-1 renal
HCT-116 colon = system: HCT-116 colon
SNB-19 CNS = system: SNB-19 CNS
HCT-15 colon = system: HCT-15 colon
SNB-75 CNS = system: SNB-75 CNS
SF-295 CNS = system: SF-295 CNS
SK-OV-3 ovarian = system: SK-OV-3 ovarian
DMS 273 small cell lung = system: DMS 273 small cell lung
MALME-3M melanoma = system: MALME-3M melanoma
HOP-18 NSCLC = system: HOP-18 NSCLC

FC(F)(F)c1nnn[n-]1.[Au+].c1ccc([PH+](c2ccccc2)c2ccccc2)cc1
GI50 (EKVX NSCLC): 5.65 µM
TGI (EKVX NSCLC): 10.4 µM
GI50 (UACC-257 melanoma): 1.82 µM
TGI (UACC-257 melanoma): 7.43 µM
GI50 (MOLT-4 leukemia): 1.52 µM
TGI (MOLT-4 leukemia): 4.09 µM
GI50 (LXFL 529 NSCLC): 1.48 µM
TGI (LXFL 529 NSCLC): 2.82 µM
GI50 (SK-MEL-28 melanoma): 2.49 µM
TGI (SK-MEL-28 melanoma): 7.35 µM
GI50 (HT29 colon): 4.25 µM
TGI (HT29 colon): 13.2 µM
GI50 (ACHN renal): 4.63 µM
TGI (ACHN renal): 9.84 µM
GI50 (HL-60(TB) leukemia): 0.161 µM
TGI (HL-60(TB) leukemia): 0.42 µM
GI50 (IGROV1 ovarian): 2.69 µM
TGI (IGROV1 ovarian): 13.2 µM
GI50 (A549 NSCLC): 19.3 µM
TGI (A549 NSCLC): 62.3 µM
GI50 (OVCAR-4 ovarian): 2.09 µM
TGI (OVCAR-4 ovarian): 6.67 µM
GI50 (SK-MEL-2 melanoma): 3.09 µM
TGI (SK-MEL-2 melanoma): 10.8 µM
GI50 (M14 melanoma): 1.78 µM
TGI (M14 melanoma): 4.37 µM
GI50 (DLD-1 colon): 1.95 µM
TGI (DLD-1 colon): 5.04 µM
GI50 (SK-MEL-5 melanoma): 2 µM
TGI (SK-MEL-5 melanoma): 7.15 µM
GI50 (SR leukemia): 1.3 µM
TGI (SR leukemia): 3.65 µM
GI50 (COLO 205 colon): 2.62 µM
TGI (COLO 205 colon): 6.94 µM
GI50 (NCI-H522 lung): 1.33 µM
TGI (NCI-H522 lung): 2.81 µM
GI50 (SF-268 CNS): 4.2 µM
TGI (SF-268 CNS): 13.1 µM
GI50 (DMS 114 small cell lung): 1.95 µM
TGI (DMS 114 small cell lung): 15 µM
GI50 (TK-10 renal): 3.51 µM
TGI (TK-10 renal): 9.27 µM
GI50 (786-0 renal): 1.84 µM
TGI (786-0 renal): 3.55 µM
GI50 (SF-539 CNS): 5.18 µM
TGI (SF-539 CNS): 19.4 µM
GI50 (U251 CNS): 3.04 µM
TGI (U251 CNS): 11.1 µM
GI50 (LOX IMVI melanoma): 2.26 µM
TGI (LOX IMVI melanoma): 7.64 µM
GI50 (OVCAR-8 ovarian): 2.77 µM
TGI (OVCAR-8 ovarian): 9.18 µM
GI50 (KM20L2 colon): 6.74 µM
TGI (KM20L2 colon): 16.6 µM
GI50 (UACC-62 melanoma): 2.17 µM
TGI (UACC-62 melanoma): 10.7 µM
GI50 (HCC-2998 colon): 10.3 µM
TGI (HCC-2998 colon): 22.3 µM
GI50 (HOP-92 NSCLC): 2.38 µM
TGI (HOP-92 NSCLC): 4.59 µM
GI50 (NCI-H23 lung): 2.79 µM
TGI (NCI-H23 lung): 9.11 µM
GI50 (OVCAR-5 ovarian): 16.1 µM
TGI (OVCAR-5 ovarian): 30 µM
GI50 (RXF 393 renal): 1.52 µM
TGI (RXF 393 renal): 3.11 µM
GI50 (KM12 colon): 13.2 µM
TGI (KM12 colon): 42.5 µM
GI50 (HOP-62 NSCLC): 19.7 µM
TGI (HOP-62 NSCLC): 34.2 µM
GI50 (SNB-78 CNS): 6.66 µM
TGI (SNB-78 CNS): > 62.7 µM
GI50 (RPMI-8226 leukemia): 1.41 µM
TGI (RPMI-8226 leukemia): 4.63 µM
GI50 (NCI-H460 lung): 16.6 µM
TGI (NCI-H460 lung): 50.4 µM
GI50 (UO-31 renal): 6.84 µM
TGI (UO-31 renal): 16.7 µM
GI50 (NCI-H226 lung): 10.9 µM
TGI (NCI-H226 lung): 26.3 µM
GI50 (OVCAR-3 ovarian): 2.89 µM
TGI (OVCAR-3 ovarian): 7.49 µM
GI50 (CCRF-CEM leukemia): 0.449 µM
TGI (CCRF-CEM leukemia): 2.91 µM
GI50 (SN12C renal): 6.34 µM
TGI (SN12C renal): 16.4 µM
GI50 (M19-MEL melanoma): 2.74 µM
TGI (M19-MEL melanoma): 15.7 µM
GI50 (CAKI-1 renal): 3.6 µM
TGI (CAKI-1 renal): 14.2 µM
GI50 (HCT-116 colon): 12.4 µM
TGI (HCT-116 colon): 24.9 µM
GI50 (SNB-19 CNS): 4.07 µM
TGI (SNB-19 CNS): 13.6 µM
GI50 (HCT-15 colon): 2.19 µM
TGI (HCT-15 colon): 6.92 µM
GI50 (SNB-75 CNS): 8.64 µM
TGI (SNB-75 CNS): 22.1 µM
GI50 (SF-295 CNS): 11 µM
TGI (SF-295 CNS): 41.3 µM
GI50 (SK-OV-3 ovarian): 15.6 µM
TGI (SK-OV-3 ovarian): 29 µM
GI50 (DMS 273 small cell lung): 5.62 µM
TGI (DMS 273 small cell lung): 54.7 µM
GI50 (MALME-3M melanoma): 1.58 µM
TGI (MALME-3M melanoma): 3.35 µM
GI50 (HOP-18 NSCLC): 8.67 µM
TGI (HOP-18 NSCLC): 20.5 µM
